The results in this text go back to patent US9562035B2, “Benzamide derivative useful as FASN inhibitors for the treatment of cancer” (Janssen Pharmaceutica NV, priority 2013, dated 2017).

SMILES strings stand for the structures. pIC50: −log10 of the molar value. Where only a bound is given, the exact number is not on record here.

Test [1] concerns A2780 ovarian cells. Description: A2780 Ovarian Cell Proliferation Assay in Lipid Reduced Medium, without Palmitate. The class given is cell-based. Conditions: Homo sapiens, A2780; lipid reduced medium, without palmitate, 96 h, MTT; read-out: Proliferation A2780 w/o Palmitate pIC50 (converted). The method, then:
(§1) The biological assays described below correspond to comparative assays for ovarian cell proliferation. […] Compounds active in the absence of palmitate would not be expected to be active in the control.
(§2) 2500 cells were seeded in a 96-well clear well plate in 200 μL RPMI1640 with 10% Fetal Calf Serum (Hyclone), and incubated at 37° C., 5% CO2. Blanks were wells without cells. The next day the culture medium was aspirated and replaced by 160 μL culture medium with 10% Lipid-Reduced Serum (LRS, Hyclone). 20 μL test compound (at concentrations of 30 μM, 10 μM, 3 μM, 1 μM, 0.30 μM, 0.10 μM, 0.03 μM and 0.01 μM)/DMSO dilution followed by 20 μL ethanol-BSA solution were added to a final concentrations of 0.2% DMSO, 0.2% fatty-acid-free BSA, 0.25% ethanol. After 96 h incubation an MTT assay was performed. The absorbance was measured at 544 nm on a SPECTRAMAX.
(§3) Raw data generated by the instrument were normalized to % Controlmin values, which were calculated as: % Controlmin=100*(x−mLC)/(mHC−mLC)
(§4) where mLC and mHC were the means of the low control wells and high control wells on the plate, after manual exclusion of outliers. A plot of Controlmin versus test compound concentration was fitted to a 4-parameter logistic curve using a non-linear least squares regression method. From the plot, an IC50 (concentration at which 50% inhibition is achieved) was calculated. pIC50 values were calculated as −log(IC50), when IC50 is expressed in molar units.
(§5) Representative compounds of the present invention were tested according to the procedure as described in Biological Example 3 above, with results as listed in Table BIO-3, below.

The test system of test [2] is A2780 ovarian cells. The experiment in a line: A2780 Ovarian Cell Proliferation Assay in Lipid Reduced Medium, with Palmitate (control). The settings on record: Homo sapiens, A2780; lipid reduced medium, 25 μM palmitate, 96 h, MTT; read-out: Proliferation A2780 with Palmitate pIC50 (converted). The class given is cell-based. The method, then:
as §1
as §2, with “palmitate-BSA” for “ethanol-BSA”, “DMSO, 25 μM palmitate (Sigma, P0500, 10 mM stock solution in ethanol)” for “DMSO,”, “incubation,” for “incubation”
A best fit curve was fitted by a minimum sum of squares method, plotting Controlmin versus test compound concentration. From the plot, an IC50 (concentration at which 50% inhibition is achieved) was calculated. pIC50 values, presented in the Table below, were calculated as −log(IC50).
as §5

Test [3] addresses T1, hFASN enzyme (full length) (Homo sapiens, UniProt P49327).
T1 construct: 10 μL hFASN enzyme (full length, 300 ng, purified in house); made in house
The experiment in a line: Fatty Acid Synthase (FASN) Inhibition Scintillation Proximity Assay. Conditions: for pIC50: mean where tested more than once, ~ = standard error of pIC50 larger than 0.5; for inhibition at 10 µM: read-out: FASN % Effect @1E−05M. It counts as biochemical. The method, then: In this assay, inhibition of FASN activity is measured using ^3H-acetyl-CoA and malonyl-CoA as substrates. ^3H-Acetyl CoA is converted to ^3H-palmitate through a series of reactions by the FASN protein, which contains 7 functional domains and carries out 7 enzymatic reactions to ultimately produce ^3H-palmitate. The assay principle is based upon the fact that ^3H-acetyl-CoA is hydrophilic and the end product, ^3H-palmitate is hydrophobic.
10 μL assay buffer (100 mM KH2PO4 pH 7.5, 1 mM DTT) (20 μL in blanks) was added to a 384-well white Opti Plate plate (Perkin Elmer). 0.9 μL test compound (at concentrations of 30 μM, 10 μM, 3 μM, 1 μM, 0.30 μM, 0.10 μM, 0.03 μM and 0.01 μM)/DMSO and 10 μL hFASN enzyme (full length, 300 ng, purified in house) or 10 μL assay buffer was added to the wells. Then 10 μL 450 μM NADPH (Sigma N7505), 18.75 μM [^3H]-acetyl-CoA (Perkin Elmer NET-290L), 150 μM malonyl-CoA (Sigma M4263) were added, mixed and incubated at room temperature for 60 minutes. The reaction was stopped by adding 20 μL Streptavidin coupled imaging beads (25 mg/ml). After incubation for 30 minutes at room temperature in the dark, the 384 well plate was centrifuged at 1500 rpm for 3 minutes and was measured after at least 24 hrs by the LEADseeker™, measuring emission using a 610±20 nm pass filter. (Bays, N. W., et al., “A simplified scintillation proximity assay for fatty acid synthase activity: development and comparison with other FAS activity assays”, J. Biomol. Screen, 2009, pp 636-642, Vol. 14(6).)
as §3, §4

The target of test [4] is T2, FASN Keto-reductase Domain (Homo sapiens, UniProt P49327).
T2 construct: 10 μL hFASN enzyme (full length, 300 ng, purified in house) and 360 μM NADPH; made in house
Description: Fatty Acid Synthase Keto-Reductase Domain (FASN KR) Inhibition. The class given is biochemical. The settings on record: mean where tested more than once; read-out: FASN K-R Domain pIC50 (converted). The method, then:
10 μL assay buffer (100 mM KH2PO4 pH 7.5) was added to a 384-well clear plate (costar 3702). 0.3 μL compound (at concentrations of 30 μM, 10 μM, 3 μM, 1 μM, 0.30 μM, 0.10 μM, 0.03 μM and 0.01 μM)/DMSO, 10 μL hFASN enzyme (full length, 300 ng, purified in house) and 360 μM NADPH (except in blank) were then added. Then, 10 μL 180 mM ethyl acetoacetate (Aldrich 688983) was added, mixed and immediately thereafter, the absorbance at 340 nm (T1) by Multiscan (Labsystems) was measured. After 20 minutes incubation at room temperature the plate was measured again (T2).
The decrease in absorbance was calculated as (Absorbance before incubation T1)−(Absorbance following incubation T2).
as §3, §4

T1 sequence (P49327 whole entry): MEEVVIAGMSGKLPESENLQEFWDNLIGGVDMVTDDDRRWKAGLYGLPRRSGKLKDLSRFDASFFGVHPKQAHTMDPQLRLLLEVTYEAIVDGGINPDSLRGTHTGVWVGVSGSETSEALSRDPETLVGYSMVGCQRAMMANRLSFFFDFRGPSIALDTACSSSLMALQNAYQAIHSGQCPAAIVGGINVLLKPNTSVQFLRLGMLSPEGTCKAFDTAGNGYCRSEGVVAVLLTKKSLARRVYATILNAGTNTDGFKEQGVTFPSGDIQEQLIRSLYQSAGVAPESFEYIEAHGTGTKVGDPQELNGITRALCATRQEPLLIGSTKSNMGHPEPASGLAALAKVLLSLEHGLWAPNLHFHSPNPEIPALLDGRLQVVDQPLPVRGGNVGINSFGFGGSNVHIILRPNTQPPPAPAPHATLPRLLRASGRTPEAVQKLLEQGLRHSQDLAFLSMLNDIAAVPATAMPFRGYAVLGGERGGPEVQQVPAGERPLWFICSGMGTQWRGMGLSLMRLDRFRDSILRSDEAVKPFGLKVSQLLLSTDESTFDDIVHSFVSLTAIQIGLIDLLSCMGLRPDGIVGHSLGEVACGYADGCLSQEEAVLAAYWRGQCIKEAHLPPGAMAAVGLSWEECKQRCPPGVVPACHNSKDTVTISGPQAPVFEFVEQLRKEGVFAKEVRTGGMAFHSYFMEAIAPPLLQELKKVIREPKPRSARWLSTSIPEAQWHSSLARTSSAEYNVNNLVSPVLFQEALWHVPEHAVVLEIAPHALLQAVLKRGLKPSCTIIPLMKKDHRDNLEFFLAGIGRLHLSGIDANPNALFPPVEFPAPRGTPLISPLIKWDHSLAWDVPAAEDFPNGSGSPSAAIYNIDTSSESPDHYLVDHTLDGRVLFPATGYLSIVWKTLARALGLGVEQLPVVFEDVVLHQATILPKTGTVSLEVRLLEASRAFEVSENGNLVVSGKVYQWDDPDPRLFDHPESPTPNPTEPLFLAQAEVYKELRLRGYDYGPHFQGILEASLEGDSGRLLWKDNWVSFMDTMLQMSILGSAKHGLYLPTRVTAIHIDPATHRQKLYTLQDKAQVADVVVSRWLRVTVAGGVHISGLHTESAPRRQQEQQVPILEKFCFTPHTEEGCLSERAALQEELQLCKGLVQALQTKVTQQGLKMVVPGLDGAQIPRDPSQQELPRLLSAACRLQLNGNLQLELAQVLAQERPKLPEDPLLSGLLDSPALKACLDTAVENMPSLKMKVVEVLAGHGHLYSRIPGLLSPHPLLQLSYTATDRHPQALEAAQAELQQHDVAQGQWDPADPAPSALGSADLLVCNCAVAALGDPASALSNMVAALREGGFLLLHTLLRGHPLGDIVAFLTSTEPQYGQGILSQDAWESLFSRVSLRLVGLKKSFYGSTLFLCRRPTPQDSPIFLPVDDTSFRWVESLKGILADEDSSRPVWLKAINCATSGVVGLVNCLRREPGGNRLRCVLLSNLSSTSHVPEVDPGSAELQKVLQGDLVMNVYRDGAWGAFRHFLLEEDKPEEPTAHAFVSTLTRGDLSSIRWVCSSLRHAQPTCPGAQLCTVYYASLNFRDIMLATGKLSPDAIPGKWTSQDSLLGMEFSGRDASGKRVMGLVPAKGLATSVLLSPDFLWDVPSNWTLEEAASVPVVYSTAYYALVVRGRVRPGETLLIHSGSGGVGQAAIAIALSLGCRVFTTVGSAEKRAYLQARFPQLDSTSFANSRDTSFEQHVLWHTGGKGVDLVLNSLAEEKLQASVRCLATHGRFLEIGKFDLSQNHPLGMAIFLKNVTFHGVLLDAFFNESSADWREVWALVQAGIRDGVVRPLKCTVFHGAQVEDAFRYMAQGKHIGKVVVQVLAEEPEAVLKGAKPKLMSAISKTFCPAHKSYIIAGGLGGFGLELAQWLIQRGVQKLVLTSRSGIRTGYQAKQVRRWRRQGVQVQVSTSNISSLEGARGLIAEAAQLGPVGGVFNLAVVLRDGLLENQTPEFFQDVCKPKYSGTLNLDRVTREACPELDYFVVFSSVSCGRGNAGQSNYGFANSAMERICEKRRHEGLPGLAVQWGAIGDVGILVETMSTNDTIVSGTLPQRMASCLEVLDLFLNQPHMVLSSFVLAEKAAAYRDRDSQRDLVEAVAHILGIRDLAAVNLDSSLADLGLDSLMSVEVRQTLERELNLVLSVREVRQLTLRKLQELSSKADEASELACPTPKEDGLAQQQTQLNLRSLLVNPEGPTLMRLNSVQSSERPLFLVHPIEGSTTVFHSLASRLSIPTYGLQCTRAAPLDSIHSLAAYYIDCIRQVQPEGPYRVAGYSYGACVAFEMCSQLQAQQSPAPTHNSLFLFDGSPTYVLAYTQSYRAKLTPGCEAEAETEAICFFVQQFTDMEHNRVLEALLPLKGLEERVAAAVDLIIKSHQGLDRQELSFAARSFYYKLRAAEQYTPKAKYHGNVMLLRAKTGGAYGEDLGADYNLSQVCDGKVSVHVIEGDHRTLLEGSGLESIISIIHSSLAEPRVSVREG
T2 sequence (P49327 whole entry, the tested form may be a part): as the sequence (P49327 whole entry) above

Regarding `Cc1ccc(C(=O)N2CC(c3ccc(-c4cnn(C)c4)cc3)C2)cc1NC(=O)c1ccc(N2CCCC2)nc1` [Compound 106, N-(2-methyl-5-(3-(4-(1-methyl-1H-pyrazol-4-yl)phenyl)azetidine-1-carbonyl)phenyl)-6-(pyrrolidin-1-yl)nicotinamide], the figures for the IC50 in test [1], in test [2] and in test [4] were 79.4 nM, over 15.1 µM and 24.5 nM, respectively. The pIC50 in test [3] is 7.97. For the same compound, in test [3], the inhibition at 10 µM is 113%.
In the same order, the values of `CCC(=O)NC1CC[C@@H](C(=O)Nc2cc(C(=O)N3CC(c4ccc(-c5ccnn5C)cc4)C3)ccc2C)C1` (stereo in doubt) [Compound 64, (1R,3S)—N-(2-methyl-5-(3-(4-(1-methyl-1H-pyrazol-5-yl)phenyl)azetidine-1-carbonyl)phenyl)-3-propionamidocyclopentanecarboxamide] are about 302 nM, over 10 µM, 85.1 nM, 7.46 and 102%.
Regarding `Cc1ccc(C(=O)N2CCC(c3ccc(-c4cnoc4)cc3)CC2)cc1NC(=O)c1ccc(NC(C)C)nc1` [Compound 51, 6-(isopropylamino)-N-(5-(4-(4-(isoxazol-4-yl)phenyl)piperidine-1-carbonyl)-2-methylphenyl)nicotinamide], the IC50 is about 33.9 nM in test [1], 1.7 µM in test [2] and 25.1 nM in test [4]. The compound further gave a pIC50 in test [3] of 7.83. Further, the inhibition at 10 µM in test [3] was 110%.
On to `Cc1ccc(C(=O)N2CC(c3ccc(-c4ccnn4C)cc3)C2)cc1NC(=O)c1cncc(Br)c1` [Compound 56, 5-bromo-N-(2-methyl-5-(3-(4-(1-methyl-1H-pyrazol-5-yl)phenyl)azetidine-1-carbonyl)phenyl)nicotinamide], for which the IC50 is 437 nM in test [1], 0.912 µM in test [2] and 457 nM in test [4]. The negative logarithm of the IC50 (pIC50) in test [3] is 6.51. Moreover, the inhibition at 10 µM in test [3] turned out to be 95%.
With `CC(C)Nc1ccc(C(=O)Nc2cc(C(=O)N3CCC(c4ccc(-c5cnn(C)c5)cc4)CC3)ccc2OCc2ccccc2)cn1` [Compound 271, N-(2-(benzyloxy)-5-(4-(4-(1-methyl-1H-pyrazol-4-yl)phenyl)piperidine-1-carbonyl)phenyl)-6-(isopropylamino)nicotinamide], the figures for the IC50 in test [1], in test [2] and in test [4] were 490 nM, over 10 µM and 537 nM, respectively. Further, in test [3], the negative logarithm of the IC50 (pIC50) was 7.00. The inhibition at 10 µM in test [3] was 101%.
As to `CC(C)Nc1ccc(C(=O)Nc2cc(C(=O)N3CCC(c4ccc(-c5ccc6cnccc6c5)cc4)CC3)ccc2Cl)cn1` [Compound 67, N-(2-chloro-5-(4-(4-(isoquinolin-6-yl)phenyl)piperidine-1-carbonyl)phenyl)-6-(isopropylamino)nicotinamide], the IC50 in test [1] is 234 nM; in test [2], 0.24 µM; in test [4], about 603 nM. Further, in test [3], the pIC50 was 6.82. In addition, the inhibition at 10 µM in test [3] came out at 92%.
As for `Cc1ccc(C(=O)N2CC(c3ccc(-c4cnn(C)c4)cc3)C2)cc1NC(=O)c1ccccc1F` [Compound 82, 2-fluoro-N-(2-methyl-5-(3-(4-(1-methyl-1H-pyrazol-4-yl)phenyl)azetidine-1-carbonyl)phenyl)benzamide], the IC50 in test [1] was 95.5 nM; in test [2], over 10 µM; in test [4], 85.1 nM. The same compound gave a pIC50 in test [3] of 7.64. For the same compound, the inhibition at 10 µM in test [3] is 98%.
Taken in the same sequence, the figures for `CC(C)Nc1ccc(C(=O)Nc2cc(C(=O)N3CCC(c4ccc(-c5cccnc5)cc4)CC3)ccc2Cl)cn1` [Compound 71, N-(2-chloro-5-(4-(4-(pyridin-3-yl)phenyl)piperidine-1-carbonyl)phenyl)-6-(isopropylamino)nicotinamide] were 447 nM, 5.25 µM, 234 nM, 7.32 and 101%.
For `Cc1ccc(C(=O)N2CCC(c3ccc(-c4cnn(C)c4)cc3)CC2)cc1NC(=O)C1CCN(CCC(C)C)C1` (stereo not drawn) [Compound 195, 1-isopentyl-N-(2-methyl-5-(4-(4-(1-methyl-1H-pyrazol-4-yl)phenyl)piperidine-1-carbonyl)phenyl)pyrrolidine-3-carboxamide], the IC50 was 110 nM in test [1], 9.12 µM in test [2] and 191 nM in test [4]. In test [3], the negative logarithm of the IC50 (pIC50) was 7.16. In addition, in test [3], the inhibition at 10 µM was found to be 101%.
As for `Cc1ccc(C(=O)N2CCC(c3ccc(-c4cnn(C)c4)cc3)CC2)cc1NC(=O)c1ccncc1F` [Compound 161, 3-fluoro-N-(2-methyl-5-(4-(4-(1-methyl-1H-pyrazol-4-yl)phenyl)piperidine-1-carbonyl)phenyl)isonicotinamide], the IC50 is 24 nM in test [1], 3.72 µM in test [2] and 38.9 nM in test [4]. Further, the pIC50 in test [3] is 7.67. For the same compound, the inhibition at 10 µM in test [3] was 101%.
Turning to `Cc1ccc(C(=O)N2CCC(c3ccc(-c4cnn(C)c4)cc3)CC2)cc1NC(=O)c1ccc(C(F)(F)F)cc1` [Compound 145, N-(2-methyl-5-(4-(4-(1-methyl-1H-pyrazol-4-yl)phenyl)piperidine-1-carbonyl)phenyl)-4-(trifluoromethyl)benzamide], the IC50 was 69.2 nM in test [1], 10.5 µM in test [2] and 33.9 nM in test [4]. In addition, the negative-log IC50 (pIC50) in test [3] was 7.66. Moreover, the inhibition at 10 µM in test [3] stood at 103%.
In the case of `Cc1ccc(C(=O)N2CCC(c3ccc(-c4cnn(C)c4)cc3)CC2)cc1NC(=O)C(C)(C)C` [Compound 87, N-(2-methyl-5-(4-(4-(1-methyl-1H-pyrazol-4-yl)phenyl)piperidine-1-carbonyl)phenyl)pivalamide], the IC50 in test [1] is 575 nM; in test [2], over 10 µM; in test [4], 288 nM. Besides, in test [3], the pIC50 is 6.74. Also, in test [3], the inhibition at 10 µM was 96%.
